Data published in publication PMC4728560 (Scientific Reports, 2016).

Tested on: cBid+Bax
Assay: Control liposome permeabilization without Bcl-xL, cBid+Bax
Assay type: biochemical
Conditions: 320 nM pH9 treated TCTP, 100 nM Bax, 20 nM cBid
Procedure: (A–E) in vitro reconstitution assay on liposome permeabilization. […] The treated Bcl-xL was then added to reactions containing ANTS-DPX liposomes, 100 nM Bax and 20 nM of either cBid (A,B) or cBidmt1(C,D) at pH 7. Liposome permeabilization was quantified by fluorescence after 5h incubation at 37 °C where 100% release was defined as the fluorescence change due to lipid solubilization with 1% Triton X-100. […] Error bars, std. dev. n = 3. To compare between the TCTP treated groups and the Control group statistically, two-way ANOVA test was performed for (A–D) and one-way ANOVA test was performed for (E). […] Colored asterisks above each data point indicate the statistical significance (*p < 0.05; **p < 0.01, no asterisks if p ≥ 0.05). A complete statistical analysis is provided in Supplementary Table 2–4. (F) Permeabilization assays of mitochondrial membrane by tBid and Bax assessing cytochrome c release. […] Cyto c extra-mito: in the supernatant, analysed by Western blot. […]
Figure 10 A,B) or cBid mt1 (Supplementary Figure 10 C,D) at pH 7 to quantify the activity of Bcl-xL inhibition of liposome permeablization. […]
the Control group (No TCTP) were analyzed through Dunnett's multiple comparisons test at each sample condition (Bcl-XL concentration) for statistical significance. […]
Statistical significance was analyzed through Dunnett's multiple comparisons test. […]

In the case of “TCTP: Translationally Controlled Tumor Protein (TCTP/tpt1), recombinant full-length”, the “effect on cBid-Bax induced permeabilization not containing Bcl-xL” value is reported as “no effect”.
